The term CC50 denotes the concentration giving 50% cytotoxicity. A word on the IC50: it is the concentration at which inhibition is half-maximal. What is called EC50 is the concentration at which the effect is half-maximal. By AC50 is commonly meant the midpoint of the concentration-response curve, whichever way the signal moves.

For one test, the system named is Vero. Nature of the test: cells. The settings on record: Chlorocebus sabaeus. Format: functional.
Test [1] has as its target T1, Fatty acid synthase (Homo sapiens, UniProt P49327). Nature of the test: FAS thioesterase domain inhibitors, dose response, biochemical, endpoint fluorescence intensity, uHTS hits (AID 624327).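 Note: fluorescence from hydrolysis of an O-methyl fluorescein acyl ester substrate by the enzyme.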 It is filed as functional.
Test [2] deals with T1, Fatty acid synthase. Nature of the test: FAS thioesterase domain inhibitors, dose response, biochemical, kinetic fluorescence intensity (AID 624326).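 Note: rate of fluorescence rise from hydrolysis of a fluorogenic O-methyl fluorescein ester substrate.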 Format: functional.
Test [3] has as its target T2, RNA-binding protein pos-1 (Caenorhabditis elegans, UniProt G5EF15).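 Note: purified POS-1 fused to maltose binding protein made in E. coli; potency of compounds blocking POS-1 binding to fluorescent RNA.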
T2 sequence (G5EF15 whole entry): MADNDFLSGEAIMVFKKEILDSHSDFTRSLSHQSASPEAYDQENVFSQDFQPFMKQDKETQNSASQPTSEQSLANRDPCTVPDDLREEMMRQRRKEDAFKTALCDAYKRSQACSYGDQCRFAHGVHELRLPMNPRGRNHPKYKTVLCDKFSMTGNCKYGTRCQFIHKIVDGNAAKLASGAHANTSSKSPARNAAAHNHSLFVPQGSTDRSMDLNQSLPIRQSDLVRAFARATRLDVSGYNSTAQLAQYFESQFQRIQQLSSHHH
Description: inhibitors of POS-1/mex-3 RNA binding, dose response, biochemical, fluorescence polarization (AID 1964). (Fluorescence polarisation rises when a labelled molecule tumbles more slowly, as on binding a larger partner.)

Test [4] deals with T3, Zinc finger protein mex-5 (Caenorhabditis elegans, UniProt Q9XUB2).
T3 sequence (Q9XUB2 whole entry): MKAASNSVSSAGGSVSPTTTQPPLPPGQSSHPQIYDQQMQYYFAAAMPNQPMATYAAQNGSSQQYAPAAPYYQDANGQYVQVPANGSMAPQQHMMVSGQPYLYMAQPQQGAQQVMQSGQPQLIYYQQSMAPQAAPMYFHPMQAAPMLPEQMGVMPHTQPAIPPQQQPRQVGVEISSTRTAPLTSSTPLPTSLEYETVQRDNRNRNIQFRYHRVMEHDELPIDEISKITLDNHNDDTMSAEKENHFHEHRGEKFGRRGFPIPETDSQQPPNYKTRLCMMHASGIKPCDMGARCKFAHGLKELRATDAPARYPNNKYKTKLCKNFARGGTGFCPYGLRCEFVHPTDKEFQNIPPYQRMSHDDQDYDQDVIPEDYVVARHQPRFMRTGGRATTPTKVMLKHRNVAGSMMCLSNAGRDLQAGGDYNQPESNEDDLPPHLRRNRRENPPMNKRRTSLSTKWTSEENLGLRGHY
Nature of the test: MEX-5/TCR-2 RNA interaction inhibitors, dose response, biochemical, C. elegans, fluorescence polarization (AID 1960).

For test [5], the system named is BJ. Nature of the test: cytotoxicity toward Ras-transformed BJeLR fibroblasts, dose response, cell-based, alamar blue fluorescence, cherrypicked samples (AID 2631).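 Note: confirmatory dose-response assay in RAS-dependent BJ fibroblasts engineered with TERT, LT and ST, with cytotoxicity read by fluorescence.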 It is filed as functional. The settings on record: Homo sapiens.
Test [6] has as its system BJ. Nature of the test: cells. Format: functional, cell-based. The settings on record: Homo sapiens.
Test [7] in a line: cytotoxicity toward DRD oncogenic fibroblasts, dose response, cell-based, non-viral oncogenic, luminescence (AID 1934). Format: functional. The settings on record: Homo sapiens.
In test [8] the test system is BJ. Description: cytotoxicity toward BJ-TERT-LT-ST fibroblasts, dose response, cell-based, RAS-independent, luminescence (AID 1935).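 Note: BJ fibroblasts immortalized with TERT plus LT and ST oncogenes.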 Format: functional. The settings on record: Homo sapiens.
In test [9] the test system is BJ. Description: cytotoxicity toward BJ-TERT fibroblasts, dose response, cell-based, RAS-independent, luminescence (AID 1933). The settings on record: Homo sapiens. It is filed as functional.
For test [10], the target named is T4, Sentrin-specific protease 8 (Homo sapiens, UniProt Q96LD8).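 Note: luminescence read-out of SENP8 inhibition, dose-response confirmation following an ultra-high-throughput screen.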
T4 sequence (Q96LD8 whole entry): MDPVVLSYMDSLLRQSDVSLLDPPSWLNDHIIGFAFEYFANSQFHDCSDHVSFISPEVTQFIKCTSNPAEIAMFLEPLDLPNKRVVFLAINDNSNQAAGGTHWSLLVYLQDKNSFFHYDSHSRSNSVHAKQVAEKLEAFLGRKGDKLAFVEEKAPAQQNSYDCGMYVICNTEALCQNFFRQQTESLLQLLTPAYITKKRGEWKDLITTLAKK
It is filed as functional.

The target of test [11] is T5, Sentrin-specific protease 6 (Homo sapiens, UniProt Q9GZR1).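 Note: Luminescence-based dose-response confirmatory assay of SENP6 inhibition, following up an ultra-high-throughput screen.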
T5 sequence (Q9GZR1 whole entry): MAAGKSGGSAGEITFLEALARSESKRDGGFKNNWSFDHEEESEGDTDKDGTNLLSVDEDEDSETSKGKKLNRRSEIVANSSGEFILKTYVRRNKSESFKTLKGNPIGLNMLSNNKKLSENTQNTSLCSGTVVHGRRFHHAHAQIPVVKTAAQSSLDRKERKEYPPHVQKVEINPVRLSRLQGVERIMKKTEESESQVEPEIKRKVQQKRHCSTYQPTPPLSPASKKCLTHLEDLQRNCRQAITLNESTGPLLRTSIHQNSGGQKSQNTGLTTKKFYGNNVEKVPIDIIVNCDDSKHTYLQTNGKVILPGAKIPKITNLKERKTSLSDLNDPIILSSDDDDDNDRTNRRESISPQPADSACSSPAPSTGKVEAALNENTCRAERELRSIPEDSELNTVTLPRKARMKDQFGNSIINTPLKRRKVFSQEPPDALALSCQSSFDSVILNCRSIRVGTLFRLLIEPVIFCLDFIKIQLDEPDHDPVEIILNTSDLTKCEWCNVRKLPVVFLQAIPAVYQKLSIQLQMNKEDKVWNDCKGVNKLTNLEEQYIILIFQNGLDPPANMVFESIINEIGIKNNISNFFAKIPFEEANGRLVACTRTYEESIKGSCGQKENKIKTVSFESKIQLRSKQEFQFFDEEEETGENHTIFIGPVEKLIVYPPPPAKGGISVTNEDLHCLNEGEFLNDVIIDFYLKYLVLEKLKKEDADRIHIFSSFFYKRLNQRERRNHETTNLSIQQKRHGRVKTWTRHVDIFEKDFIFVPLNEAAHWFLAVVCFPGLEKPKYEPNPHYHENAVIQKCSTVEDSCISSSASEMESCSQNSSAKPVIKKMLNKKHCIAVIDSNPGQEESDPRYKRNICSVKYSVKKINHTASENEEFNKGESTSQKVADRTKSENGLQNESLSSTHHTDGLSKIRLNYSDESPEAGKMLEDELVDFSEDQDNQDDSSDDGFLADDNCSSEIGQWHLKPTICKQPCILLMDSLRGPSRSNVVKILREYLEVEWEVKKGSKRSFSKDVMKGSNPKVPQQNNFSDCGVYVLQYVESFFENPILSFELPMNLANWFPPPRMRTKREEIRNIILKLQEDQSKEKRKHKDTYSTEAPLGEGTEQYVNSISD
It is filed as functional.

The target of the next test is T6, Caspase-3 (Homo sapiens, UniProt P42574).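 Note: Dose-response selectivity test against caspase-3 for candidate inhibitors of sentrin-specific proteases (SENPs).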
T6 sequence (P42574 whole entry): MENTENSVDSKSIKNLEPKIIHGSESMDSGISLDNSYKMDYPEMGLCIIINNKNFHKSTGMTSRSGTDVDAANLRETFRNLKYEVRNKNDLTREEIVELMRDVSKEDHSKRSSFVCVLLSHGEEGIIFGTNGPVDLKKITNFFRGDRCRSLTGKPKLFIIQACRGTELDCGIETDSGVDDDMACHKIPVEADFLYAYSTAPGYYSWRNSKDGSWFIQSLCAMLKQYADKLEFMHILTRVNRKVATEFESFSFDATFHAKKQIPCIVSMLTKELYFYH
It is filed as functional.

The target of test [12] is T7, Sentrin-specific protease 7 (Homo sapiens, UniProt Q9BQF6).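 Note: Luminescence-based dose-response confirmation of ultra-high-throughput screening hits, measuring inhibition of SENP7.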
T7 sequence (Q9BQF6 whole entry): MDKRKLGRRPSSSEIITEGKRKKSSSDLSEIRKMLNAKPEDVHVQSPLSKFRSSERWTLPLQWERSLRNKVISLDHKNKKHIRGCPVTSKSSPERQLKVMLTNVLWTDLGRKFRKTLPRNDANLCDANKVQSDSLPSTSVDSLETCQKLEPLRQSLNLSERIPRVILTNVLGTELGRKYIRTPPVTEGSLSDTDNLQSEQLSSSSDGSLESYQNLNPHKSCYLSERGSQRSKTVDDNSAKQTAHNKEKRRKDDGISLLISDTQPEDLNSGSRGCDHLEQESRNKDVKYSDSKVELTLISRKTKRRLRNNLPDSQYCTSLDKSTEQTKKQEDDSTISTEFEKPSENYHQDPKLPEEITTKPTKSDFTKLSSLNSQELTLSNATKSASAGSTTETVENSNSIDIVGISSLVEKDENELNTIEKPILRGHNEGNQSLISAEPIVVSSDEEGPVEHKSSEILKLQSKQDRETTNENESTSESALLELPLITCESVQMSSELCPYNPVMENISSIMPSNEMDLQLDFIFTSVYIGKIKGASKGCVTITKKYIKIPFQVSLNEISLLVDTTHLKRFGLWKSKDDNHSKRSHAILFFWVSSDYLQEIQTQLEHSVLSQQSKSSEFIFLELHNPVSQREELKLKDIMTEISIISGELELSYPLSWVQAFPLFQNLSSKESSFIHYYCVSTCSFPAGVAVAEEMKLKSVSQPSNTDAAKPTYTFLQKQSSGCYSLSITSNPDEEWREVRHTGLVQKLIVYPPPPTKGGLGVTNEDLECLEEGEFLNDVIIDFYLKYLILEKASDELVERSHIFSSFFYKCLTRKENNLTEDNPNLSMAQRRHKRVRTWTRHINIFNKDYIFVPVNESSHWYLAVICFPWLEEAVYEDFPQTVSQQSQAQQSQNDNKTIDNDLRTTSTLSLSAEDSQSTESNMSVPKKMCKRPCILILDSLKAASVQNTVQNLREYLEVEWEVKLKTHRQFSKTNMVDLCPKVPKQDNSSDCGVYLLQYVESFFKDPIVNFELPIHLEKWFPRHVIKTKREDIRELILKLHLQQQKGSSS
It is filed as functional.

A short description of test [13]: inhibitors of intracellular T. cruzi replication, confirmation, NIH3T3 host cells, beta-gal luminescence (AID 2044).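 Note: intracellular parasites grown in NIH/3T3 mouse fibroblasts as host cells; luminescent beta-galactosidase reporter signal from transgenic T. cruzi replicating inside host cells; inhibitors lower the luminescence signal.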 Format: functional, cell-based.
The target in test [14] is T8, DNA repair protein RAD52 homolog (Homo sapiens, UniProt P43351).
T8 sequence (P43351 whole entry): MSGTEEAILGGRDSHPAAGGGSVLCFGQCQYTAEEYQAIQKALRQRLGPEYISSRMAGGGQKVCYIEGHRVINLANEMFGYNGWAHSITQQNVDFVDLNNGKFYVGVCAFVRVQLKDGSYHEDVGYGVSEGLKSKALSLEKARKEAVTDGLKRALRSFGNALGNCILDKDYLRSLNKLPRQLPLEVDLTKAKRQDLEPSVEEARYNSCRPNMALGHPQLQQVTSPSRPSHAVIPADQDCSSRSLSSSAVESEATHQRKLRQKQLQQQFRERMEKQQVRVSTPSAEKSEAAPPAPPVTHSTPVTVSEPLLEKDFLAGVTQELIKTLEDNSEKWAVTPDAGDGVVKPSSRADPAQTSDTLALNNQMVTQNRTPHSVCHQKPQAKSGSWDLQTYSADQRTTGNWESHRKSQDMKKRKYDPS
Format: functional, biochemical.

The nature of test [15]: cytotoxicity toward NIH3T3 fibroblasts, dose response, counter-screen, cell-based, ATP luminescence, mouse fibroblasts (AID 2010).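 Note: cells exposed to compound for about 90 hours before reading.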 It is filed as functional.

The structures appear in SMILES notation. Calls of active or inactive are those of the source.

T1 sequence (P49327 whole entry, the tested form may be a part): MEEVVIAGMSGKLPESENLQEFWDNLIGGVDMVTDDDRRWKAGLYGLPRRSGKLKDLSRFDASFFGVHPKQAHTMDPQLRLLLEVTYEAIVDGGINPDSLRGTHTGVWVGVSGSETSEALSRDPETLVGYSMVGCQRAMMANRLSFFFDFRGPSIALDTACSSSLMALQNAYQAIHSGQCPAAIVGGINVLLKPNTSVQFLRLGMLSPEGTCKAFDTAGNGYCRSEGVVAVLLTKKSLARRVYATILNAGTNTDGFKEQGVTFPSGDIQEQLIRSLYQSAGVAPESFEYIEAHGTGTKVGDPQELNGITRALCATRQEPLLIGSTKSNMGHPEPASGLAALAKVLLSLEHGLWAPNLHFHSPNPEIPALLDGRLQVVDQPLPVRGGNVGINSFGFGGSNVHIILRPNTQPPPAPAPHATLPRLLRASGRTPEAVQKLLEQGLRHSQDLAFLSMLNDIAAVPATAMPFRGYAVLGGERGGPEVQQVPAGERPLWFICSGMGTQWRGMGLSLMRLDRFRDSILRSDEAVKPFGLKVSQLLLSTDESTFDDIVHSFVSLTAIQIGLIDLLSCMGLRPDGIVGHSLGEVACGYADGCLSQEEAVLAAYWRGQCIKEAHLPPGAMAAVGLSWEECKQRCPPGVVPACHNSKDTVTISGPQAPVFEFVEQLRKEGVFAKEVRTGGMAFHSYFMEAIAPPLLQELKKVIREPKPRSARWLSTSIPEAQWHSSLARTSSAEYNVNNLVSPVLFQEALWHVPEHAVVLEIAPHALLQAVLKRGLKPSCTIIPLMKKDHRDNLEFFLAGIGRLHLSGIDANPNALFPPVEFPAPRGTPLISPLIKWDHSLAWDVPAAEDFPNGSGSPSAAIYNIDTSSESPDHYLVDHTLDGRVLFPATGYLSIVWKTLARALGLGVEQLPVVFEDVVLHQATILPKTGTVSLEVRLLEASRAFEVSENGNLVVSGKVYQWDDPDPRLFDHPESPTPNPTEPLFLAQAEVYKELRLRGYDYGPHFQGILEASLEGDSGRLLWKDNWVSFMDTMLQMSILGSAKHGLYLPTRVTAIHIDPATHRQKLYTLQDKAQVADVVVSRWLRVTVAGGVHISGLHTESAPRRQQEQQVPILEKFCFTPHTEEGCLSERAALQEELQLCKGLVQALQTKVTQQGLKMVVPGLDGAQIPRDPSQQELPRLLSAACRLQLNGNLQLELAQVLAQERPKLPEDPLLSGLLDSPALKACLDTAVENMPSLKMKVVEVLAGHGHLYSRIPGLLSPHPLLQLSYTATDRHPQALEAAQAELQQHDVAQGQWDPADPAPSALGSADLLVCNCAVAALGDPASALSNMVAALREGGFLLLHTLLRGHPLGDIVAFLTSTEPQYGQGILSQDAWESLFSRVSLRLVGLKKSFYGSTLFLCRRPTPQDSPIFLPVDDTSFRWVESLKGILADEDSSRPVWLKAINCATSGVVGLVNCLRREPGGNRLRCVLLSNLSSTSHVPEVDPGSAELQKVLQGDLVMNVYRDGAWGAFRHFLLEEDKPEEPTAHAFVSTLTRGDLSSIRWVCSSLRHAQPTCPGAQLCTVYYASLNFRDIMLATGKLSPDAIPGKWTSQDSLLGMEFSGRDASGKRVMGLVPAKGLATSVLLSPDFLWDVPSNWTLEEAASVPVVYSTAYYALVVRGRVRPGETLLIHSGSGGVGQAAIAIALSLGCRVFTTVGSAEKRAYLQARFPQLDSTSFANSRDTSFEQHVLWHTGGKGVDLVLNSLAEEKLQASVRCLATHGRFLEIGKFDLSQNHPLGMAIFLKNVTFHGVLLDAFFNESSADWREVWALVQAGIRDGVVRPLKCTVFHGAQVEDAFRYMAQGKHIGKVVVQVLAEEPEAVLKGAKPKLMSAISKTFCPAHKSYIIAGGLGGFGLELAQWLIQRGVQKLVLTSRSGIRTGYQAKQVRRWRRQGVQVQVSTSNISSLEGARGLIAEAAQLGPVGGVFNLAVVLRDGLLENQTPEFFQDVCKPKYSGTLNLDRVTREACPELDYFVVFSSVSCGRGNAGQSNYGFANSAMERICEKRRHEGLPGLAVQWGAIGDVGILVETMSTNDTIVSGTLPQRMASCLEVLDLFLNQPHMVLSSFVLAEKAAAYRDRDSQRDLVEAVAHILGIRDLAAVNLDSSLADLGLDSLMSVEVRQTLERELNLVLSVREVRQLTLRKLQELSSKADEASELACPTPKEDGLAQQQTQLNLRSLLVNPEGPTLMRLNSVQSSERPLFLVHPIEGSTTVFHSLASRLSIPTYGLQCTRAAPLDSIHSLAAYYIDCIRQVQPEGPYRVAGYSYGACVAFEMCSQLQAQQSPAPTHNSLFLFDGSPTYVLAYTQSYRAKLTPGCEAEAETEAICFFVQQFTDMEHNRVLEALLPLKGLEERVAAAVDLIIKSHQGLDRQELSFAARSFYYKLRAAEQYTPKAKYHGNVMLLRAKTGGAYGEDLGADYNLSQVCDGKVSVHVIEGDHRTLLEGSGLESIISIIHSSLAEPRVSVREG

On to `Cc1cc(-c2ccc(C(C)C)c(S(=O)(=O)NCc3ccco3)c2)on1`, for which the CC50 in the test on Vero is 6.78 µM (active).
As for `COc1ccc([N+](=O)[O-])cc1NC(=O)CCC(=O)c1cccs1`, the IC50 at Fatty acid synthase [1] is 9.16 µM (active); on Fatty acid synthase [2] it was 9.62 µM (active).
In the case of `CC1CCN(C(=O)CCN2C(=O)/C(=C/c3cccs3)SC2=S)CC1`, the CC50 in the test with Vero was 17.3 µM (active). Also, the EC50 in test [3] and in test [4] was > 300 µM (not active) each time.
For `Brc1nc(-c2ccccc2)nc(-c2ccccc2)c1Br`, the 50% effective concentration (EC50) in the test with BJ [5] is 4.95 µM (active); with BJ [6], 14 µM (active); in test [7], 10.2 µM (active); with BJ [8], 7.93 µM (inconclusive); in the test on BJ [9] it was 8.57 µM (inconclusive).
In the case of `COc1ccc(-c2nnc(SCc3ccccc3F)o2)cc1`, the IC50 in [10] was 12.2 µM (active); in test [11], 12 µM (active); at Caspase-3, 16.1 µM (active); in test [12], 4.23 µM (active).
For `O=C(Nc1cccc(F)c1)c1ccc(-c2ccccc2Cl)o1`, the IC50 in test [10] is 53.7 µM (active); in test [11], 42 µM (active); at Caspase-3 it was 47 µM (active); in test [12], 7.07 µM (active).
The corresponding values for `c1ccc(Nc2nnc(-c3cccc4ccccc34)o2)cc1` are > 100 µM (inactive), > 100 µM (inactive), > 100 µM (inactive) and > 100 µM (inactive).
Take `O=[N+]([O-])c1ccc(S(=O)(=O)NN=Cc2ccc3c(c2)OCO3)cc1`: the IC50 on Fatty acid synthase [1] is 5.4 µM (active); on Fatty acid synthase [2] it was 5.8 µM (active).
As for `Cc1cc(N2CCCC2)nc2ccc(NC(S)=NCCCN3CCC(C)CC3)cc12`, in the test on Vero, the CC50 is > 25 µM (active). The half-maximal effective concentration (EC50) was 2.03 µM (active) in [13] and 14.2 µM (active) in [15]. In addition, the AC50 in [14] is 2.27 µM (active).
Turning to `CCOC(=O)CC(NC(=O)c1cc2ccccc2oc1=O)c1cccc([N+](=O)[O-])c1` (stereo unspecified), the IC50 is 16.7 µM (active) at Fatty acid synthase [1] and 15.5 µM (active) on Fatty acid synthase [2].
In the case of `O=C(/C=C/c1ccc(F)cc1)NNC(=O)CCN1CCN(Cc2ccccc2)CC1`, the EC50 was > 133 µM (inactive) with BJ [5]; 3.53 µM (active) in the test on BJ [6]; 2.92 µM (active) in [7]; 2.15 µM (active) in the test with BJ [8]; 19.1 µM (active) with BJ [9].
Take `COC(=O)c1ccc(CSc2nc(C(F)F)cc(C)c2C#N)o1`: the IC50 at Fatty acid synthase [1] is 17.2 µM (active); on Fatty acid synthase [2], 18.6 µM (active).
The corresponding values for `CC1=C(C(=O)OCC(Br)(Br)Br)C(c2cccc([N+](=O)[O-])c2)NC(=O)N1CCCC(=O)O` (stereo unspecified) are 7.69 µM (active) and 5.05 µM (active).
Turning to `CCCNC(=O)N1c2ccccc2Sc2ccccc21`, the CC50 in the test on Vero was > 25 µM (active).
